Measured values as given in publication PMC10958117, “G-site residue S67 is involved in the fungicide-degrading activity of a tau class glutathione S-transferase from Carica papaya” (The Journal of Biological Chemistry, 2024).

Assays:
[1] = target: T1, tau class glutathione S-transferase from Carica papaya (TCpGST) (Carica papaya, UniProt O49821); test: HPLC degradation assay ([…] after […] h); S67A inactive; assay type: biochemical; set-up: gene PGST1; full-length ORF (657 bp), C-terminal His6, pET-30a, E. coli BL21(DE3), Ni-NTA purified; conditions: 120 min
T1 sequence (O49821 1-218): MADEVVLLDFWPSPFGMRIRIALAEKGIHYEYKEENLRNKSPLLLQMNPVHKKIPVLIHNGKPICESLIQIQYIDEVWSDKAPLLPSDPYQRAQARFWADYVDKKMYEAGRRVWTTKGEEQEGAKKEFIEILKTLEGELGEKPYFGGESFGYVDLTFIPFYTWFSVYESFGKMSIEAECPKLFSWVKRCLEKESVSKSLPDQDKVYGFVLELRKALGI

[2] = target: T1, tau class glutathione S-transferase from Carica papaya (TCpGST); test: as above; assay type: biochemical; set-up: gene PGST1; conditions: 120 min

| % [2] | SMILES | % [1] |
| --- | --- | --- |
| – | N#Cc1c(Cl)c(Cl)c(Cl)c(C#N)c1Cl [compound 11, chlorothalonil] | 26% |
| 69% | c1ccc2[nH]c(-c3cscn3)nc2c1 [compound 16, thiabendazole] | – |
